Laboratory results reported in article PMC8307506, “Identification of Dihydromyricetin and Metabolites in Serum and Brain Associated with Acute Anti-Ethanol Intoxicating Effects in Mice” (International Journal of Molecular Sciences, 2021).

Assays:
[1] = design: method as in PMID 29969512; details: cited from earlier work
[2] = tested on: P-glycoprotein (Pgp) efflux transporters; design: method as in PMID 33810134, PMID 25985195; details: cited from earlier work
[3] = Quantification of DHM in brain samples; format: in vivo, mice; details: for Brain Concentration 15 min post DHM: mean ± SEM
Description: Eight-week-old male and female C57BL/6J mice (Jackson’s Laboratories, Bar Harbor, ME, USA) were housed 4 mice to a cage (separated by sex) and maintained on 12-h light, 12-h dark cycles (lights on at 0700 h) in the animal facility at the Department of Animal Sciences, Rutgers University. Following 1-week acclimation, animals were given ad libitum access to water and a polyphenol-free diet (PFD; 3.82 kcal/g, 10% fat, 20% protein, 70% carbohydrate; D12450H; Research Diets, Inc., New Brunswick, NJ, USA) for at least 10 days. For PK studies, after an overnight fast, mice were administered 50 mg/kg DHM (dissolved in 0.9% saline with 10% DMSO) by either IP injection or oral gavage. Oral gavage was performed using single-use, sterile plastic feeding tubes for mice (20 ga × 30 mm; cat# FTP-20-30, Instech Laboratories, (Plymouth Meeting, PA, USA). Mice were deeply anesthetized with 5% isoflurane mixed with oxygen, and blood was collected by cardiac puncture. Following cardiac puncture, animals were exsanguinated and transcardial perfusion with 0.9% saline was performed to ensure blood removal from the brain tissue. Blood and brain samples were collected from a total of 85 mice at 0.25, 0.75, 1.5, 3, 6, 12, 24 h (3–4 mice for each sex and timepoint). Tissues were immediately homogenized with 0.2% formic acid at 1:2 (w/v), and frozen at −80 °C until analysis. Blood was centrifuged at 3000× g for 10 min at 4 °C to isolate serum. For efficacy studies, mice (n = 8/sex) were fasted at 5 h prior to Ethanol gavage 5 g/kg (37% Ethanol in water). DHM 50 mg/kg IP (dissolved in 0.9% saline with 10% DMSO) was administered at 0, 15, 45, 90 and 180 min prior to Ethanol oral gavage. Each mouse was tested at each time point 7 days apart over 6-week period. At the time of Ethanol gavage, mice were placed in oversized conical holders (L: 152 mm X W: 37 mm) and observed for ability to return upright upon being placed in a supine position. Duration of LORR was determined by ability to return upright 3 times within 30 s. To determine whether ethanol-induced tolerance developed, one week (Week 1; Baseline) prior to the 6-week repeated DHM dosing study all mice were oral dose with ethanol (5 g/kg) without any IP injection and LORR was measured. Mice were then re-tested in a similar fashion with oral ethanol 1 week after the DHM 6-week period (Week 8; Post). […] All animal studies were approved by the Institutional Animal Care and Use Committee of Rutgers University (Bello; PROTO999900014, OLAW #A3262-01, 15 March 2017) and complied with NIH Guide for the Care and Use of Laboratory Animals.
Whole brain samples were homogenized in FA. All brain homogenates were stored at −80 °C and conditioned to room temperature prior to analysis. An aliquot of 300 µL of brain homogenate was added to 50 µL IS solution (417 ng/mL in EtOAc) and 500 µL of EtOAc in an Eppendorf tube. Samples were then vortexed for 30 s and sonicated for 1 min. Samples were centrifuged for 2 min at 3000× g and the supernatant transferred to a glass vial with 10 µL of 2% ascorbic acid in methanol. Samples were extracted two more times with 500 µL EtOAc and the supernatant transferred to the corresponding vial and dried under vacuum. Each sample was then reconstituted with 100 µL of 45% MeOH with 0.1% FA, centrifuged, and aliquoted into an HPLC vial for analysis.
An Agilent 1290 Infinity II UPLC system interfaced with an Agilent 6470 Triple Quadrupole Mass Spectrometer with an electrospray ionization source (Agilent Technology, Palo Alto, CA, USA) was used for sample analysis. An Waters Acquity UPLC BEH C8 column (2.1 × 150 mm, 1.7 μm) (Milford, MA, USA) column with a VanGuard Acquity C8 guard column (2.1 × 5 mm, 1.7 μm) (Milford, MA, USA) was used for chromatographic separation. The binary mobile phases consisted of water with 0.1% FA (phase A) and acetonitrile (ACN) with 0.1% formic acid (phase B). The flow rate was set at 0.450 mL/min. […]

C57BL/6J mice = assay: Ethanol-induced loss of righting reflex (LORR); format: in vivo
Description: Eight-week-old male and female C57BL/6J mice (Jackson’s Laboratories, Bar Harbor, ME, USA) were housed 4 mice to a cage (separated by sex) and maintained on 12-h light, 12-h dark cycles (lights on at 0700 h) in the animal facility at the Department of Animal Sciences, Rutgers University. Following 1-week acclimation, animals were given ad libitum access to water and a polyphenol-free diet (PFD; 3.82 kcal/g, 10% fat, 20% protein, 70% carbohydrate; D12450H; Research Diets, Inc., New Brunswick, NJ, USA) for at least 10 days. For PK studies, after an overnight fast, mice were administered 50 mg/kg DHM (dissolved in 0.9% saline with 10% DMSO) by either IP injection or oral gavage. […] Duration of LORR was determined by ability to return upright 3 times within 30 s. To determine whether ethanol-induced tolerance developed, one week (Week 1; Baseline) prior to the 6-week repeated DHM dosing study all mice were oral dose with ethanol (5 g/kg) without any IP injection and LORR was measured. […]
Pharmacokinetic parameters were calculated using noncompartmental analysis. Elimination half-life (T1/2) was calculated with R software from the linear regression of the terminal phase of the log serum concentration-time curve. The AUC0→24 was calculated with OriginLab software by trapezoidal analysis of the serum concentration-time plot. Cmax and Tmax were determined directly from observed data. Data are expressed as mean ± SEM. Statistical significance between AUC0→24 among test groups was calculated with an independent t-test (GraphPad software, San Diego, CA, USA). Time to LORR was analyzed by repeated measured ANOVA. Tolerance was determined by mean split in LORR response and confirmed with paired t-test (Week 1 vs. Week 8). Statistical significance of serum concentrations for individual time points was calculated using a two-way analysis of variance (ANOVA) analysis. […] Statistical significance of electrophysiology results compound GABAergic modulation was determined using a paired t-test (Vehicle control vs. Compound, GraphPad software, San Diego CA, USA). p < 0.05 was considered significant.

[4] = design: method as in PMID 27951743; details: rats; cited from earlier work

SMILES: O=C1c2c(O)cc(O)cc2O[C@H](c2cc(O)c(O)c(O)c2)[C@H]1O [DHM, Dihydromyricetin]
- cellular permeability [1]: 1.84 ×10⁻⁶ cm/s
- Pgp interaction [2]: Pgp substate and inhibitor
- Concentration in brain tissue ([3]; 15 min post DHM 50 mg/kg PO or IP, male and female mice, range over groups): 50.9 to 861.5 nmol/g
- Detection of DHM in brain samples ([3]; 45 min or longer post PO or IP administration of DHM 50 mg/kg): not detected
- Brain Concentration 15 min post DHM ([3]; female mice, DHM 50 mg/kg IP): 864 ± 220 nmol/g
- Brain Concentration 15 min post DHM ([3]; female mice, DHM 50 mg/kg PO): 50.9 ± 2.6 nmol/g
- Brain Concentration 15 min post DHM ([3]; male mice, DHM 50 mg/kg IP): 672 ± 85 nmol/g
- Brain Concentration 15 min post DHM ([3]; male mice, DHM 50 mg/kg PO): 423 ± 66 nmol/g
- ethanol-induced loss of righting reflex (C57BL/6J mice; C57BL/6J mice, DHM 50 mg/kg IP 0 or 15 min prior to ethanol PO 5 g/kg): significantly reduced
- LORR compared with vehicle treated mice (C57BL/6J mice; female mice, DHM 50 mg/kg IP at time 0 and 45 min before oral ethanol 5 g/kg, p < 0.05): reducing LORR
- LORR (C57BL/6J mice; responsive mice (5 males/3 females), DHM 50 mg/kg IP at time 0 and 15 min prior to ethanol PO, p < 0.05): demonstrated a reduction in LORR
- oral absolute bioavailability [4]: 4.02%
